Measurements as given in PubChem BioAssay AID2060898 (Molecular Pharmacology Branch, DTP, NCI, 2025).

Test system: 616215-338-R-J1-PDC complex spheroid viability
Experiment: Anticancer human tumor 616215-338-R-J1-PDC patient-derived colon adenocarcinoma cell line growth inhibition [RAS]
Details: for IC50: curve of first compound; for viability, T/C: stronger effect = lower value
Summary of the method: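 Tumour cells grown as complex spheroids with HUVEC endothelial cells and mesenchymal stem cells, treated with RAS pathway inhibitor combinations. Each agent spans half-log steps from near clinical Cmax, or 10 microM where Cmax is unknown.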
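Also: spheroids exposed to agents for seven days before viability readout.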
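For viability, T/C in this document: 100% = DMSO vehicle control viability.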

Q: Which IC50 (second compound 0.000949 µM) does the source give for `CC(=O)OC12COC1CC(O)C1(C)C(=O)C(O)C3=C(C)C(OC(=O)C(O)C(NC(=O)OC(C)(C)C)c4ccccc4)CC(O)(C(OC(=O)c4ccccc4)C21)C3(C)C` (centres undefined) + CCn1c(-c2cccnc2C(C)OC)c2c3cc(ccc31)N1CCOC(CC(NC(=O)C(C(C)C)N(C)C(=O)C3(F)CCN(C(=O)C#CC(C)(C)N(C)C)CC3)C(=O)N3CCCC(N3)C(=O)OCC(C)(C)C2)C1 here?
A: Its IC50 is < 31.6 nM.

Q: And the IC50 (second compound 0.003 µM)?
A: Its IC50 is < 31.6 nM.

Q: And the IC50 (second compound 0.00949 µM)?
A: The IC50 was < 31.6 nM.

Q: What about the IC50 (second compound 0.03 µM) of the same compound?
A: Its IC50 is < 31.6 nM.

Q: And the IC50 (second compound 0.0949 µM)?
A: The IC50 was < 31.6 nM.

Q: What about the IC50 (second compound 0.3 µM) of the same compound?
A: Its IC50 is < 31.6 nM.

Q: And the viability, T/C (second compound 0.000949 µM, first compound 0.0316 µM)?
A: The viability, T/C was 30.9%.

Q: What about the viability, T/C (second compound 0.000949 µM, first compound 0.1 µM) of the same compound?
A: Its viability, T/C is 20.4%.

Q: And the viability, T/C (second compound 0.000949 µM, first compound 0.316 µM)?
A: The viability, T/C was 19.5%.

Q: And the viability, T/C (second compound 0.000949 µM, first compound 1 µM)?
A: Its viability, T/C is 19.6%.

Q: And the viability, T/C (second compound 0.000949 µM, first compound 3.16 µM)?
A: The viability, T/C was 22.6%.

Q: What about the viability, T/C (second compound 0.000949 µM, first compound 10 µM) of the same compound?
A: Its viability, T/C is 28.7%.

Q: And the viability, T/C (second compound 0.003 µM, first compound 0.0316 µM)?
A: The viability, T/C was 30.8%.

Q: And the viability, T/C (second compound 0.003 µM, first compound 0.1 µM)?
A: Its viability, T/C is 23.1%.

Q: And the viability, T/C (second compound 0.003 µM, first compound 0.316 µM)?
A: The viability, T/C was 20.3%.

Q: What about the viability, T/C (second compound 0.003 µM, first compound 1 µM) of the same compound?
A: The viability, T/C was 22.1%.

Q: And the viability, T/C (second compound 0.003 µM, first compound 3.16 µM)?
A: The viability, T/C was 24.2%.

Q: And the viability, T/C (second compound 0.003 µM, first compound 10 µM)?
A: Its viability, T/C is 27%.

Q: And the viability, T/C (second compound 0.00949 µM, first compound 0.0316 µM)?
A: The viability, T/C was 28%.

Q: And the viability, T/C (second compound 0.00949 µM, first compound 0.1 µM)?
A: The viability, T/C was 24.2%.

Q: And the viability, T/C (second compound 0.00949 µM, first compound 0.316 µM)?
A: Its viability, T/C is 19.9%.

Q: And the viability, T/C (second compound 0.00949 µM, first compound 1 µM)?
A: The viability, T/C was 20.8%.

Q: What about the viability, T/C (second compound 0.00949 µM, first compound 3.16 µM) of the same compound?
A: Its viability, T/C is 24.8%.

Q: What about the viability, T/C (second compound 0.00949 µM, first compound 10 µM) of the same compound?
A: The viability, T/C was 24.6%.

Q: And the viability, T/C (second compound 0.03 µM, first compound 0.0316 µM)?
A: Its viability, T/C is 25.9%.

Q: What about the viability, T/C (second compound 0.03 µM, first compound 0.1 µM) of the same compound?
A: The viability, T/C was 21.9%.

Q: And the viability, T/C (second compound 0.03 µM, first compound 0.316 µM)?
A: Its viability, T/C is 18.3%.

Q: And the viability, T/C (second compound 0.03 µM, first compound 1 µM)?
A: The viability, T/C was 19%.

Q: What about the viability, T/C (second compound 0.03 µM, first compound 3.16 µM) of the same compound?
A: The viability, T/C was 22.6%.

Q: And the viability, T/C (second compound 0.03 µM, first compound 10 µM)?
A: The viability, T/C was 22.4%.

Q: And the viability, T/C (second compound 0.0949 µM, first compound 0.0316 µM)?
A: Its viability, T/C is 33%.

Q: What about the viability, T/C (second compound 0.0949 µM, first compound 0.1 µM) of the same compound?
A: The viability, T/C was 19.8%.

Q: And the viability, T/C (second compound 0.0949 µM, first compound 0.316 µM)?
A: Its viability, T/C is 19.8%.

Q: And the viability, T/C (second compound 0.0949 µM, first compound 1 µM)?
A: Its viability, T/C is 19%.

Q: And the viability, T/C (second compound 0.0949 µM, first compound 3.16 µM)?
A: The viability, T/C was 22.2%.

Q: And the viability, T/C (second compound 0.0949 µM, first compound 10 µM)?
A: Its viability, T/C is 23.1%.

Q: What about the viability, T/C (second compound 0.3 µM, first compound 0.0316 µM) of the same compound?
A: Its viability, T/C is 28.8%.

Q: And the viability, T/C (second compound 0.3 µM, first compound 0.1 µM)?
A: The viability, T/C was 17.9%.

Q: What about the viability, T/C (second compound 0.3 µM, first compound 0.316 µM) of the same compound?
A: The viability, T/C was 17%.

Q: What about the viability, T/C (second compound 0.3 µM, first compound 1 µM) of the same compound?
A: The viability, T/C was 17.6%.

Q: And the viability, T/C (second compound 0.3 µM, first compound 3.16 µM)?
A: The viability, T/C was 20.8%.

Q: What about the viability, T/C (second compound 0.3 µM, first compound 10 µM) of the same compound?
A: The viability, T/C was 25.5%.

Q: What does the source list for `CCc1c2c(nc3ccc(O)cc13)-c1cc3c(c(=O)n1C2)COC(=O)[C@]3(O)CC` + CCn1c(-c2cccnc2C(C)OC)c2c3cc(ccc31)N1CCOC(CC(NC(=O)C(C(C)C)N(C)C(=O)C3(F)CCN(C(=O)C#CC(C)(C)N(C)C)CC3)C(=O)N3CCCC(N3)C(=O)OCC(C)(C)C2)C1?
A: IC50 (second compound 0.000949 µM): 15.3 nM; IC50 (second compound 0.003 µM): 13.8 nM; IC50 (second compound 0.00949 µM): 14.2 nM; IC50 (second compound 0.03 µM): 16.4 nM; IC50 (second compound 0.0949 µM): 8.04 nM; IC50 (second compound 0.3 µM): 9.13 nM; viability, T/C (second compound 0.000949 µM, first compound 0.000949 µM): 105%; viability, T/C (second compound 0.000949 µM, first compound 0.003 µM): 101%; viability, T/C (second compound 0.000949 µM, first compound 0.00949 µM): 56.8%; viability, T/C (second compound 0.000949 µM, first compound 0.03 µM): 39%; viability, T/C (second compound 0.000949 µM, first compound 0.0949 µM): 32.6%; viability, T/C (second compound 0.000949 µM, first compound 0.3 µM): 18.1%; viability, T/C (second compound 0.003 µM, first compound 0.000949 µM): 97.9%; viability, T/C (second compound 0.003 µM, first compound 0.003 µM): 99%; viability, T/C (second compound 0.003 µM, first compound 0.00949 µM): 56%; viability, T/C (second compound 0.003 µM, first compound 0.03 µM): 35.8%; viability, T/C (second compound 0.003 µM, first compound 0.0949 µM): 30.6%; viability, T/C (second compound 0.003 µM, first compound 0.3 µM): 16.6%; viability, T/C (second compound 0.00949 µM, first compound 0.000949 µM): 107%; viability, T/C (second compound 0.00949 µM, first compound 0.003 µM): 98.4%; viability, T/C (second compound 0.00949 µM, first compound 0.00949 µM): 58.1%; viability, T/C (second compound 0.00949 µM, first compound 0.03 µM): 32%; viability, T/C (second compound 0.00949 µM, first compound 0.0949 µM): 30.1%; viability, T/C (second compound 0.00949 µM, first compound 0.3 µM): 15.1%; viability, T/C (second compound 0.03 µM, first compound 0.000949 µM): 111%; viability, T/C (second compound 0.03 µM, first compound 0.003 µM): 110%; viability, T/C (second compound 0.03 µM, first compound 0.00949 µM): 58.7%; viability, T/C (second compound 0.03 µM, first compound 0.03 µM): 40.9%; viability, T/C (second compound 0.03 µM, first compound 0.0949 µM): 30.8%; viability, T/C (second compound 0.03 µM, first compound 0.3 µM): 16.4%; viability, T/C (second compound 0.0949 µM, first compound 0.000949 µM): 99.9%; viability, T/C (second compound 0.0949 µM, first compound 0.003 µM): 97.6%; viability, T/C (second compound 0.0949 µM, first compound 0.00949 µM): 41.9%; viability, T/C (second compound 0.0949 µM, first compound 0.03 µM): 33.4%; viability, T/C (second compound 0.0949 µM, first compound 0.0949 µM): 30.2%; viability, T/C (second compound 0.0949 µM, first compound 0.3 µM): 16.6%; viability, T/C (second compound 0.3 µM, first compound 0.000949 µM): 103%; viability, T/C (second compound 0.3 µM, first compound 0.003 µM): 69%; viability, T/C (second compound 0.3 µM, first compound 0.00949 µM): 48.1%; viability, T/C (second compound 0.3 µM, first compound 0.03 µM): 37.1%; viability, T/C (second compound 0.3 µM, first compound 0.0949 µM): 26%; viability, T/C (second compound 0.3 µM, first compound 0.3 µM): 14.3%
